Source: patent US8697662B2, “Methods for treating Kaposi sarcoma” (PTC Therapeutics, Inc., priority 2009, dated 2014)
Where two headings read alike, the source gives them in different places. Marks after values point to notes of the source that are not given here.

What was measured:
LNCaP xenografts = test: Tumor growth inhibition in LNCaP prostate cancer xenografts; format: in vivo, athymic nude mice
Experimental: Experimental Design. The LNCaP cell line is derived from a lymph node metastasis.
Tumor size was measured by calipers at periodic intervals during the study. When the mean tumor size in a mouse exceeded 1500 mm^3, mice in that group were sacrificed and both tumor and plasma were assayed for pathologic VEGF concentration as described in Section 9.1.1.1.

[1] = Cardiovascular safety pharmacology study in awake telemeterized dogs; format: in vivo, beagle dogs; settings: single oral doses of 30, 60, and 120 mg/kg, male dogs
[2] = Single-dose oral toxicity study in rats; settings: Sprague Dawley, rat, in vivo, 1 day
Experimental: (§1) A battery of genotoxicity studies was also performed. […] The L23 vehicle was used.
Because maximal exposure occurred at 100 mg/kg, this dose is considered the NOAEL for 1 day of dosing.

VEGF-A = test: Patients with Kaposi Sarcoma: circulating serum and plasma VEGF-A levels; format: in vivo, human
From the text: Assaying secreted cytokines characteristic for KS: To measure the effect of a Compound on KS, serum and plasma may be evaluated for levels of VEGF, VEGF-C, VEGF-D, VEGF-R1, VEGF-R2, VEGF165b, P1GF, IL-6, IL-8 and IL-10 at baseline (pre-dose of a Compound on Day 1) and mid-cycle (e.g., Day 15) of cycle 1, on Day 1 of all subsequent cycles, and at the end of the study. Depending on the results of these assays, other potential serum markers characteristic for KS may also be measured.

[3] = Phase 1 escalating multiple-dose study in healthy volunteers: pharmacokinetics (Table 28); format: in vivo, human
Experimental: (§2) The study was performed under the oversight of the French health authorities. The study was not performed under an IND.
(§3) Methods. The trial was a Phase 1, randomized, escalating multiple dose, single center study conducted in 2 stages.
Capsules contained 2 mg or 20 mg of active substance.
Capsules contained 20 mg or 25 mg of active substance.
Noncompartmental methods were used to compute Tmax, Cmax, and AUC. Dose proportionality and sex effect were evaluated using ANOVA on log transformed PK parameters using dose, sex, and dose by sex as fixed factors.

[4] = 28-day oral toxicity study in dogs with 15-day recovery
Experimental: The L23 vehicle was used. […] All studies in the toxicology program were conducted according to GLP regulations.

[5] = Phase 1 escalating multiple-dose study in healthy volunteers: safety and tolerability; format: in vivo; settings: through the highest dose level tested ([…] TID)
Experimental: as §2, §3

[6] = system: hypoxia-inducible endogenous VEGF expression; test: Hypoxia-inducible endogenous VEGF expression ELISA in HeLa cells, dose-response EC50 (Table 3); format: cell-based; settings: Homo sapiens, hypoxic conditions (1% O2), VEGF ELISA of conditioned media
Experimental: The ability of the Compounds to modulate hypoxia-inducible endogenous VEGF expression may be analyzed as follows. VEGF protein levels may be monitored by an ELISA assay (R&D Systems). Briefly, HeLa cells may be cultured for 24-48 hours under hypoxic conditions (1% O2, 5% CO2, balanced with nitrogen) in the presence or absence of a Compound. The conditioned media may then be assayed by ELISA, and the concentration of VEGF calculated from the standard ELISA curve of each assay.
A dose-response analysis may be performed using the ELISA assay and conditions described above. The conditions for the dose-response ELISA are analogous to those described above. A series of, e.g., seven different concentrations may be analyzed. In parallel, a dose-response cytotoxicity assay may be performed using Cell Titer Glo (Promega) under the same conditions as the ELISA to ensure that the inhibition of VEGF expression was not due to the cytotoxicity.

[7] = 7-day oral toxicity study in rats; settings: Sprague Dawley, rat, in vivo; for NOAEL at 7 days: oral gavage
Experimental: as §1
Maximal exposures occurred at a dose of 120 mg/kg/day.

[8] = biological target: human-ether-a-go-go-related gene (hERG) current (Homo sapiens, UniProt Q12809); test: Higher throughput hERG assay; format: biochemical
HT1080 xenografts = test: Intratumoral microvessel density (CD31 immunostain) and tumor VEGF in HT1080 xenografts; format: in vivo, athymic nude mice; settings: 5 mg/kg BID oral (given as racemic mixture), 10 days
Experimental: Experimental Design. HT1080 cells (5×10^6 cells/mouse) were implanted subcutaneously in male athymic nude mice.
At the end of treatment, the mice were sacrificed. Excised tumors were assayed by ELISA for VEGF content as described in Section 9.1.1.1, and were sectioned and immunostained with an anti murine CD31 antibody that is specific for endothelial cells.

[9] = system: SY5Y orthotopic xenografts; test: Orthotopic SY5Y neuroblastoma tumor model (kidney capsule), tumor weight; format: in vivo; settings: 5 weeks of treatment
From the text: Experimental Design. In orthotopic tumor models, human tumor cells are implanted into the mouse in an organ that corresponds to the location from which the tumors arise. Such models may provide a better predictor of clinical efficacy than injection of tumors into the flanks of nude mice. See Hoffman, Invest. New Drugs 1999, 17(4):343-59. SY5Y neuroblastoma or SKNEP Ewing sarcoma tumor cells (1×10^6 cells/mouse) were implanted into the kidney capsule of female athymic nude mice according to published methods. See Huang et al., Proc. Natl. Acad. Sci. USA 2003, 100(13):7785-90. One week after implantation of each type of tumor, mice were divided into 2 groups and were administered a test Compound as shown in Table 21.
After 5 weeks of treatment, the mice were sacrificed, and the weights of the tumors were assessed.

[10] = ECG and blood pressure assessments in 7-day and 28-day dog toxicity studies; format: in vivo, beagle dogs

Sequence of human-ether-a-go-go-related gene (hERG) current (Q12809 whole entry): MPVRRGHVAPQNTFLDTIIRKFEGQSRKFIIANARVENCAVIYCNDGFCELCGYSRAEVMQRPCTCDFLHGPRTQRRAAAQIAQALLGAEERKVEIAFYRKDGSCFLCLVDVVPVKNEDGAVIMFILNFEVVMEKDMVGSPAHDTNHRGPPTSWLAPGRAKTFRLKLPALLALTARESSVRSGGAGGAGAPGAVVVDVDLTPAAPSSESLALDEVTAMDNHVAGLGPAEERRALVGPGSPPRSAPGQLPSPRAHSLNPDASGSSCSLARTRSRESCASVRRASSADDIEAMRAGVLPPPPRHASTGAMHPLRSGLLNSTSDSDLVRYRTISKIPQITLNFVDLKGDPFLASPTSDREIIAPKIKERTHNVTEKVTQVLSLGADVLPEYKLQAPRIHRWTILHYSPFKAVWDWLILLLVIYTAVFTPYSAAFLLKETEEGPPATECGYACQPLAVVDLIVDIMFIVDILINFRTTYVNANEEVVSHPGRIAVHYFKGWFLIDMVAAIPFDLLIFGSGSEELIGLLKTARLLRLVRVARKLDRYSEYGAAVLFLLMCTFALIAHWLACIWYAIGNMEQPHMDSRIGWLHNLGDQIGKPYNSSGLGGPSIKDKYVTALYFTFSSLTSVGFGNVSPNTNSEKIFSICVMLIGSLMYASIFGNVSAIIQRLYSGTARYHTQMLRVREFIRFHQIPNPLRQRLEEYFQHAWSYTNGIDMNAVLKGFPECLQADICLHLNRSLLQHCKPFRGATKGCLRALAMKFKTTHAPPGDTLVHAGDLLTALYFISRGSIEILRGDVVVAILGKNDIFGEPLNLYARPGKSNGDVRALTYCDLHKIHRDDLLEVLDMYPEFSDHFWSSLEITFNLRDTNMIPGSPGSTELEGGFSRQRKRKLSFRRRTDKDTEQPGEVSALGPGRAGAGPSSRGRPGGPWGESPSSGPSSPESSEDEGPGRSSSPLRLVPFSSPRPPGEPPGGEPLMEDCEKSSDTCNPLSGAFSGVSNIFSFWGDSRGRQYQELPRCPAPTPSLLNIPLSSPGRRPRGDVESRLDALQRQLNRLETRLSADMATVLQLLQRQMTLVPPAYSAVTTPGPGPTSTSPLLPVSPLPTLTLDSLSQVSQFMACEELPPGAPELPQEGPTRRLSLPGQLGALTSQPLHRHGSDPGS

In the case of `COc1ccc(C2c3[nH]c4ccc(Cl)cc4c3CCN2C(=O)Oc2ccc(Cl)cc2)cc1` (racemic) [Compound #10], the “time to tumor progression (time to reach ≧1000 mm^3) (in words)” value (LNCaP xenografts; 10 mg/kg M-W-F) is reported as “prolonged”, the “intratumoral VEGF concentrations adjusted for tumor size (in words)” value (LNCaP xenografts; 10 mg/kg M-W-F, day of sacrifice) is reported as “reduced” and the “Mean % Inhibition of Intratumoral VEGF vs Vehicle at Sacrifice” value (LNCaP xenografts; LNCaP xenografts in male nude mice, 10 mg/kg oral M-W-F, adjusted for tumor size) is reported as 51^d %. The “cardiovascular or electrocardiographic (including QT interval) parameters” value [1] was “no meaningful changes”, the “dose at which maximal exposure occurred” value [2] was 100 mg/kg and the “circulating serum VEGF-A levels (in words)” value (VEGF-A; patients (FIG. 35A)) was “dose responsive reduction”. The “circulating plasma VEGF-A levels (in words)” value (VEGF-A; patients (FIG. 35B)) was “dose responsive reduction”, the “oral bioavailability (in words)” value [3] was “orally bioavailable” and the “increases in mean Cmax and AUC0-24 with dose (in words)” value ([3]; Stage 1 and Stage 2) was “generally dose proportional”. For the same compound, the “target trough plasma concentration of ~0.1 to […] (in words)” value ([3]; all dose levels) was “achieved”, the “accumulation of Cmax and AUC0-24, Day 1 to Day 7” value ([3]; continuous dosing 7 days) was about 2 fold and the “lag time before appearance in plasma” value ([3]; oral capsules) was about 30 min. The “dose at which maximal exposures occurred” value ([4]; dogs, 5, 15, and 30 mg/kg/dose BID, 28 days) was 30 mg/kg/dose BID, the clinical tolerability ([4]; dogs, low- and mid-dose levels (5, 15 mg/kg/dose BID), 28 days) was “clinically well tolerated” and the “NOAEL for 28-days” value ([4]; dogs, oral capsules) was 15 mg/kg/dose BID. For the same compound, the dose limiting toxicities [5] was “no dose limiting toxicities were observed”, the EC50 [6] was under 8 nM and the “dose at which maximal exposures occurred” value ([7]; 7 days) was 120 mg/kg/day. The NOAEL at 7 days ([7]; female, read-out: NOAEL for 7-days, female rats) was 120 mg/kg/day, the NOAEL at 7 days ([7]; male, read-out: NOAEL for 7-days, male rats) was 40 mg/kg/day and the “inhibition of hERG current (in words)” value [8] was “negative for meaningful inhibition”. The “tumor vessel count (CD31 immunostain)” value (HT1080 xenografts) was “unchanged”, the “tumor growth (tumor weight) (in words)” value [9] was “completely prevented growth” and the QTc values ([10]; males, 60 mg/kg/day, 28-day study) was “comparable to controls”. The “ECG or blood pressure results” value ([10]; through 120 mg/kg/day for 7-days and through 60 mg/kg/day for 28-days, oral) was “did not have any toxicological effects”.
